Results published in US11058702B2 (EMEK, Inc., priority 2014, dated 2021).
Several values for one entry are separate records, joined by “and”; a condition that tells them apart may be missing. Equal values may be shown once. Read-outs that look alike come from different tables or passages of the source.

Legend:
[1] = parameters: species or system ferret; settings: in vivo
[2] = cited from earlier work
[3] = in vivo
From the text: It has been previously reported that kinetically distinct forms of aldehyde oxidase exist in male and female rodent liver, and that these distinct forms occur as a result of differences in redox state and not in cDNA sequencing. […] A high degree of homology exists between mouse and human aldehyde oxidase.

[4] = Plasma PK of once daily po IPdR x 28 days; format: in vivo, Fischer-344 rats
From the text: Cancer research. 1994; 54(10):2695-700. […] Plasma samples are processed by solvent deproteinization.
This study was requested by the FDA as part of the pre-clinical testing of po IPdR prior to IND submission. […] Thus, the PK profile for po IPdR appears quite similar in mice and rats.

IPdR aldehyde oxidase = settings: intestine, bone marrow, lung and kidney; cited from earlier work
high-grade gliomas = assay: Predicted clinical use of IPdR + RT (+TMZ); format: in vivo, human
From the text: Dysregulation of other DNA repair pathways, including both MMR and BER, are reported to contribute to the aggressive biology and poor prognosis of high-grade gliomas. In a recent comprehensive analysis of the messenger ribonucleic acid (mRNA) expression levels in 157 DNA repair genes in two large, publically available, gene expression data sets from 699 GBM tumors, the expression levels of a key BER glycolylase (APE1) and a key MMR protein (PMS2) were reported to be independent prognostic biomarkers of survival following treatment with RT alone or TMZ alone. Based on this novel DNA repair prognostic index for GBM and other high-grade gliomas, future clinical studies of the use of RT+IPdR would stratify for specific molecular subsets of high-grade gliomas with intact MGMT (i.e. unmethylated promoter) and deficient MMR. […] In both clinical scenarios, the enhanced IPdR-mediated radiosensitization would be predicted to improve the duration of survival by 50%, as reflected in the early trials of ci IUdR+RT (Table 1).
The patient will initially undergo maximal surgical resection, with a goal of <5% residual disease (the infiltrative nature of high-grade gliomas dictates this goal). […] The patient will continue TMZ and IPdR throughout the course of RT.

[5] = system: locally advanced pancreas cancer; assay: Predicted clinical use of IPdR + gemcitabine + RT; format: in vivo, human; settings: from 40%
From the text: The patient will continue to take oral IPdR in addition to receiving gemcitabine therapy throughout the course of RT, and will discontinue IPdR following completion of RT.

[6] = system: cellular DNA of HCT-116, HT-29, U251 xenografts, bone marrow, intestine, liver
Procedure: After fixing the single-cell suspension with 70% ethanol in normal saline, the DNA is partially denatured with 2N HCl and subsequently reacted with a mouse anti-IUdR monoclonal antibody (Becton-Dickinson) followed by incubation with a fluorescein isothiocyanate-labeled goat anti-mouse secondary antibody. Finally, the nuclei are incubated with propidium iodide (PI) to label the DNA. Flow cytometric analysis is performed using two color analysis with emissions of fluorescein isothiocyanate detected with 530 nm short pass filters and PI detected with 630 nm long pass filters. In various embodiments, a minimum of 10,000 events is analyzed per sample, and the percentage of labeled cells is calculated.
Subsequently, single cells are disrupted and the DNA is enzymatically digested into free nucleosides. DNA extraction and digestion are performed by incubation with 10% trichloroacetic acid, followed by RNA digestion in 0.25M NaOH and enzymatic digestion with DNA-ase, alkaline phosphate and phosphodiesterase in MgCl and potassium phosphate buffer. A Waters 600E solvent delivery system on a 3.9×300 mm μ Bondapak reverse-phase column (Waters Corp, Milford, Mass.) is used. The mobile phase consists of 100 mm of sodium acetate buffer (pH 5.45) plus 7% (v/v) acetonitrile. Peak identification and quantitation of IUdR and thymidine (TdR) are performed against authentic nucleoside standards. The % IUdR-DNA replacement (or % TdR replacement) is calculated according to:

chordoma = assay: Predicted clinical use of IPdR + proton therapy; format: in vivo, human; settings: IPdR added to PT
From the text: The patient will continue to take oral IPdR throughout the course of PT, and will discontinue IPdR following completion of PT.
PT as a modality of RT is gaining popularity as it allows delivery of higher doses of IR with equivalent or less toxicity (i.e. the TI of PT is higher than that of conventional RT). The use of PT, however, is limited by availability (limited number of PT centers), feasibility (logistics involved in the administration of PT formidable), and the cost (cost of PT is, on average, 3-5 times the cost of conventional RT).

[7] = system: locally advanced rectal cancer; assay: Predicted clinical use of po IPdR + RT + capecitabine; format: in vivo, human; settings: po IPdR added to RT+capecitabine
From the text: The biochemical and cellular interactions of RT+FP are felt to result from inhibition of the enzyme, thymidylate synthetase (TS) by the FP monophosphate metabolite, FdUMP, leading to decreased (or unbalanced) nucleotide pools necessary for DNA synthesis and decreased DNA repair following RT damage. […] The clinical and PK data from this ongoing clinical trial will be used in the design of a future Phase II clinical trial of IPdR+RT+twice daily po capecitabine as pre-operative therapy in patients with locally advanced rectal cancer.
The patient will continue to take oral IPdR in addition to capecitabine therapy throughout the course of RT, and will discontinue IPdR and capecitabine following completion of RT.

in vivo = settings: daily po bolus (gastric gavage) for 6 days
Procedure: No further dose escalations were used because of the increased risk of pulmonary aspiration with larger drug volumes (≥2000 mg/kg/d).

[8] = system: herpes simplex virus-infected HeLa cells; settings: cited from earlier work
[9] = Plasma pharmacokinetics of po IPdR in athymic mice
From the text: These nucleoside analogs are extracted from the plasma by the addition of 5-chloro-2′-deoxyuridine (internal standard) and acetonitrile. The samples are redissolved in deionized water for HPLC analysis using a Spectra-Physics P2000 pump and UV2000 detection (Spectra-Physics Analytical, Fremont, Calif.) on a 3.9×300 mm μ Bondapak C18 reverse phase column (Waters Associates, Milford, Mass.). […] Plasma samples are processed by solvent deproteinization. […] All solvents should be high-pressure liquid chromatography (HPLC) grade.

[10] = system: HT-29, HCT 116, U251 and U87 xenografts; assay: Tumor regrowth assay of response to RT; format: in vivo, athymic mice
AP site = settings: cited from earlier work
human cancer cell models = assay: IUdR+MX in experimental human cancer cell models; format: cell-based
From the text: BER processing typically leads to chemotherapy drug and IR resistance. Consequently, the recognition and detection of BER-deficient cancers and/or the development of chemical inhibitors of specific BER enzymes can reverse alkylating and anti-metabolite drug resistance, as well as IR resistance. Based in part on the pre-clinical results from Dr. Kinsella's lab, methoxyamine (MX), a chemical inhibitor of BER, is currently undergoing clinical testing as TRC-102 in combination with chemotherapy drugs including temozolomide. MX is a small organic amine derivative of alkoxyamine that blocks the short patch BER pathway by covalently binding the AP site formed by a specific glycosylase, rendering it refractory to the catalytic activity of AP endonuclease 1. A MX-bound AP site is repaired much more slowly (>300×) than a normal AP site, and enhances cell death.

[11] = IPdR+TMZ+RT, MGMT promoter methylated GBM
[12] = human colorectal and glioblastoma xenografts

O=c1ncc(I)cn1[C@H]1C[C@H](O)[C@@H](CO)O1 [IPdR]
blood cell counts, liver function tests, kidney function tests, urinalysis [1]: No significant abnormalities | gross findings at complete necropsy [1]: no anatomic lesions | hematologic, biochemical, or histopathologic changes [1]: no significant hematologic, | histology of CNS tissues [1]: No histological changes | kidney and uterus weights [1]: decreased | liver weights [1]: increased | microscopic changes in liver [1]: minimal to moderate cytoplasmic vacuolation of hepatocytes | weight loss at highest dose [1]: species. Noted mild weight | plasma concentrations of IUdR vs oral dose of IPdR ([2]; 150 mg to 2400 mg): generally increased | peak IUdR plasma levels ([2]; IPdR 2400 mg po, 6 patients): 4.0 ± 1.02 µmol/L | IUdR half-life ([2]; IPdR 2400 mg po): 1.5 h | time IUdR plasma levels remained above 1 umol/L ([2]; IPdR 2400 mg po): 3 to 4 h | time to peak IUdR plasma levels ([2]; IPdR 2400 mg po): 1.67 ± 1.21 h | toxicities ([2]; po IPdR 150 mg-2400 mg): No toxicities. | IUdR levels decreasing over 8 hours to ([2]; po IPdR dose of 2400 mg): 1 µM | duration of peak plasma levels of IUdR ([2]; po IPdR dose of 2400 mg): 4 h | peak plasma levels of IUdR ([2]; po IPdR dose of 2400 mg): > 4 µM | transient plasma levels of IUdR ([2]; po IPdR): up to 4 μMol/L | adverse events (NCI Common Toxicity Criteria version 4.0) ([2]; single po dose 150-2400 mg, 10 patients): no drug-related adverse events | clearance from plasma [3]: rapidly cleared from plasma in a bi-exponential fashion | Cmax values for IPdR with increasing dose ([4]; 0.2 or 1.0 gm/kg/day): less than dose proportional | IUdR AUC values vs dose ([4]; after po IPdR): proportional with increasing dose | time of peak IUdR concentrations ([4]; after po IPdR dosing): ≤ 15 min | mean half-life for IUdR ([4]; females, after po IPdR): 8 h | mean elimination half-life for IPdR ([4]; highest dose): ~5 h | mean half-life for IUdR ([4]; males, after po IPdR): 6 h | absorption of po IPdR ([4]; rat, in vivo, po): not dependent on sex, dose, or single (Day 1) versus multiple daily dosings (Day 28) | time of maximal concentrations of IPdR ([4]; single doses of 1.0 gm/kg/day): 90 min | AUC values for IPdR after 28 days ([4]; vs Day 1): less than those observed after Day 1 | activity of IPdR aldehyde oxidase in other normal tissues vs liver (IPdR aldehyde oxidase): 10 fold less | predicted prolongation of survival (high-grade gliomas; [11]): up to 70% | predicted survival (high-grade gliomas; [11]): 24 months | predicted improvement of duration of survival (high-grade gliomas; RT+IPdR or RT+IPdR+TMZ): 50% | expected percentage of patients achieving R0-resection [5]: > 60% | radiosensitization compared to continuous infusion IUdR ([6]; % IUdR-DNA incorporation as surrogate): more effective radiosensitizer | increase in % IUdR-DNA cellular incorporation in tumor vs MTD of po IUdR ([6]; IPdR 1 g/kg/d for 6 days, HCT-116): 2-3 fold | IUdR-DNA incorporation in tumors, po IPdR vs ci IUdR [6, 12]: Increased IUdR-DNA | increase in % IUdR-DNA tumor cell incorporation, po IPdR compared to ci IUdR ([6]; human tumor xenografts, MTD schedules of IUdR): 2-3 fold and 2 fold | IUdR-DNA incorporation in normal tissues, po IPdR vs ci IUdR ([6]; mouse, in vivo, po): decreased in normal | decrease in % IUdR-DNA incorporation in bone marrow and intestine, po IPdR compared to ci IUdR ([6]; mouse, in vivo, po): 2 fold and 2-3 fold | less % IUdR-DNA incorporation in bone marrow and intestine, po IPdR vs po IUdR ([6]; mouse, in vivo, po): ≥ 2 fold | % IUdR-DNA incorporation, liver tumor metastases vs sc tumor ([6]; po IPdR, HCT-116): no differential effect | normal tissue systemic toxicities compared to continuous infusion IUdR ([6]; weight loss, myelosuppression): less normal tissue systemic toxicities | predicted increase of the TI of the IR (chordoma): up to 1.5 × | further improvement in DFS [7]: 10-15% | postulated pCR rate ([7]; from 10-15%): 30-35% | tolerated dose (in vivo): up to 1 g/kg/d | LD50 (IPdR, one dose/day×14-28 days): never reached | TI of IPdR in animals (LD50/ED50): ∞ | deaths (very high doses, one dose/day×14-28 days): no deaths were seen | toxicity to uninfected cells or mice [8]: without toxicity | antiviral activity ([8]; in vitro and in vivo following po administration): significant activity | peak plasma levels of IUdR ([9]; bolus 250 mg/kg IPdR po): up to 45 μM | time to peak plasma levels of IUdR ([9]; bolus 250 mg/kg IPdR po): ≤ 15 min | plasma levels of IPdR at 45 and 90 min ([9]; po 1500 mg/kg): remain elevated | time to peak plasma level of IPdR ([9]; po IPdR bolus): 10 to 20 min | time to peak plasma level of IUdR ([9]; po IPdR bolus): 10 to 20 min | time to peak plasma level of metabolite IP ([9]; po bolus of IPdR): 45 to 90 min | time to peak plasma level of metabolite IU ([9]; po bolus of IPdR): 45 to 90 min | enhancement of response to RT with po IPdR [10, 12]: IUdR. 1.3-1.5 fold | calculated SER for po IPdR ([10]; mouse, in vivo, po): 1.3-1.5

CON [MX, methoxyamine]
slower repair of MX-bound AP site than normal AP site (AP site): > 300 × | effect of IUdR+MX on % IUdR-DNA incorporation and radiosensitization (human cancer cell models): enhances
